The text below walks through data of paper PMC11005233, “Targeting FTO induces colorectal cancer ferroptotic cell death by decreasing SLC7A11/GPX4 expression” (Journal of Experimental & Clinical Cancer Research : CR, 2024).

Structures are written as SMILES.

This assay deals with fat mass and obesity-associated protein (FTO) (Homo sapiens, UniProt Q9C0B1). In words: SPR (Biacore T200); also thermal shift, CETSA, cell-free m6A demethylase assay. Format: binding.
Sequence of fat mass and obesity-associated protein (FTO) (Q9C0B1 whole entry): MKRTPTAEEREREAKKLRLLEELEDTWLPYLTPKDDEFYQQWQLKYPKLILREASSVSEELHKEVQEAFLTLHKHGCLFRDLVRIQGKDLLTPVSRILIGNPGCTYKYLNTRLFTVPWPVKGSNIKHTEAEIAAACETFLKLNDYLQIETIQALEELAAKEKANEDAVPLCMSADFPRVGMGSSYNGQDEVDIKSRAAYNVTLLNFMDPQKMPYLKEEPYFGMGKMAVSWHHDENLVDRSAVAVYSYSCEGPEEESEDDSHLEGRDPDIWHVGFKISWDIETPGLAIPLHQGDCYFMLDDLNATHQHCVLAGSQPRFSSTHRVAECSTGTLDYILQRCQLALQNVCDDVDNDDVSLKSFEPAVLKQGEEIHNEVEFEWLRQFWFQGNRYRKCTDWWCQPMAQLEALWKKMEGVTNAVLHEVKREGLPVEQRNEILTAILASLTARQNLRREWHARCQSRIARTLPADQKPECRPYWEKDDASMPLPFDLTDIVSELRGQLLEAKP

Turning to `C/C(=C\C(=O)OCCCCCCCCC(=O)O)C[C@@H]1OC[C@H](C[C@@H]2O[C@H]2[C@@H](C)[C@H](C)O)[C@@H](O)[C@H]1O` [Mupirocin], the Kd amounted to 3.63 µM.

As a reminder, the Kd is the concentration at which binding is half-saturated.
